Legend:
[1] = system: adult subjects with relapsing MS; set-up: species or system human; conditions: in vivo
Excerpt: Based on the individual case review, most ALT/AST increases ≥3×ULN occurred as a single transient asymptomatic episode, resolving with continued treatment or after protocol mandated treatment discontinuation. All but one case of bilirubin increase ≥2×ULN occurred in subjects with pre-treatment bilirubin increases. One case of potential Hy's law occurred in a subject with pre-existing transaminase elevation (ALT>5×ULN), and the event fully resolved within 2 weeks after treatment discontinuation.
In Study 1, elevations of ALT to 5-fold the upper limit of normal (ULN) or greater occurred in 4.6% of patients treated with PONVORY compared to 2.5% of patients who received teriflunomide 14 mg. […] The median time to an elevation of 3-fold the ULN was 3 months. The majority (89%) of patients with ALT increases 3-fold or greater the ULN continued treatment with PONVORY with values returning to less than three times the ULN within approximately 2-4 weeks.

[2] = system: adult subjects with relapsing MS; assay: Treatment-emergent adverse events and premature treatment discontinuation, phase III study (Study 1); type: in vivo, human; conditions: in vivo
Experimental: A total of 1438 MS patients have received PONVORY at doses of at least 2 mg daily. These patients were included in Study 1 (2-year active-controlled versus teriflunomide 14 mg) [see Clinical Studies (14)] and in a Phase 2 (6-month placebo-controlled) study in patients with MS and the uncontrolled extension studies.

[3] = system: adult subjects with relapsing MS; assay: Pulmonary function (percent predicted FEV1), Study 1; type: in vivo, human
Experimental: In Study 1, the reduction from baseline in percent predicted FEV1 at 2 years was 8.3% in PONVORY-treated patients compared to 4.4% in patients receiving teriflunomide 14 mg. In Study 1, 7 patients discontinued PONVORY because of pulmonary adverse events. There is insufficient information to determine the reversibility of the decrease in FEV1 or FVC after treatment discontinuation. PONVORY should be used with caution in patients with severe respiratory disease (i.e., pulmonary fibrosis, asthma, and chronic obstructive pulmonary disease). Spirometric evaluation of respiratory function should be performed during therapy with PONVORY if clinically indicated.

[4] = system: adult subjects with relapsing MS; assay: EDSS, time to first 12-week / 24-week confirmed disability accumulation (CDA); type: in vivo, human; conditions: for Hazard ratio, time to first 12-week CDA (3-month CDP), ponesimod vs teriflunomide: stratified Cox regression
Excerpt: (§1) A 12-week CDA is an increase of at least 1.5 in EDSS for subjects with a baseline EDSS score of 0.0 or an increase of at least 1.0 in EDSS for subjects with a baseline EDSS score of 1.0 to 5.0, or an increase of at least 0.5 in EDSS for subjects with a baseline EDSS score≥5.5 which is to be confirmed after 12 weeks.
All EDSS measurements (with or without relapse, at a scheduled or unscheduled visit) were used to determine the onset of disability accumulation. However, EDSS scores used for confirmation of disability accumulation were obtained at a scheduled visit (i.e., unscheduled visits cannot be used as confirmatory visits) outside any ongoing relapse. In this context, relapse duration is defined as period between start and end dates if available and limited to 90 days from onset if end date is not available or duration is longer than 90 days.
In order to confirm that the EDSS increase is persistent, all EDSS measurements between the onset and the 12-week EDSS confirmation (minus 7-day visit time-window) need to show an increase in EDSS, meeting the criteria for accumulation of disability as defined above.
as §1, with “24-week” for “12-week”, “24” for “12”
The primary endpoint was the annualized relapse rate (ARR) over the study period. Additional outcome measures included: 1) the number of new Gd-enhancing T1 lesions from baseline to Week 108, 2) the number of new or enlarging T2 lesions (without double-counting of lesions) from baseline to Week 108, and 3) the time to 3-month and 6-month confirmed disability progression. A confirmed disability progression was defined as an increase of at least 1.5 in EDSS for patients with a baseline EDSS score of 0, an increase of at least 1.0 in EDSS for patients with a baseline EDSS score of 1.0 to 5.0, or an increase of at least 0.5 in EDSS for patients with a baseline EDSS score at least 5.5, which was confirmed after 3 months and 6 months.

CCC/N=C1\S/C(=C\c2ccc(OC[C@H](O)CO)c(Cl)c2)C(=O)N1c1ccccc1C [Ponesimod, (R)-5-[3-chloro-4-(2,3-dihydroxy-propoxy)-benz[Z]ylidene]-2-([Z]-propylimino)-3-o-tolyl-thiazolidin-4-one]
Discontinuation rate because of elevations in hepatic enzymes ([1]; human, 2 year): 2.3% | Patients with elevations of ALT to 5-fold the ULN or greater ([1]; human, 2 year): 4.6% | Subjects with ALT increase >3×ULN (label: 3-fold the ULN or greater) ([1]; human, 2 year): 17.3% | Subjects with ALT increase >8×ULN ([1]; human, 2 year): 0.7% | Median time to an ALT elevation of 3-fold the ULN [1]: 3 months | Patients with ALT increases 3-fold or greater the ULN who continued treatment [1]: 89% | Time for ALT values returning to less than three times the ULN on continued treatment [1]: 2-4 weeks | Day 1 AESI Atrioventricular block first degree ([2]; human): (0.5) % | Day 1 AESI Bradycardia ([2]; human): (0.7) % | Day 1 AESI Bundle branch block left ([2]; human): (0.2) % | Day 1 AESI Bundle branch block right ([2]; human): (0.2) % | Day 1 AESI Defect conduction intraventricular ([2]; human): (0.4) % | Day 1 AESI Sinus arrhythmia ([2]; human): (0.2) % | Day 1 AESI Sinus bradycardia ([2]; human): (0.2) % | AE leading to discontinuation, SOC Blood and lymphatic system disorders ([2]; human, 2 year): (0.5) % | AE leading to discontinuation, SOC Cardiac disorders ([2]; human, 2 year): (0.2) % | AE leading to discontinuation, SOC Eye disorders ([2]; human, 2 year): (0.9) % | AE leading to discontinuation, SOC Gastrointestinal disorders ([2]; human, 2 year): (0.7) % | AE leading to discontinuation, SOC General disorders and administration site conditions ([2]; human, 2 year): (0.5) % | AE leading to discontinuation, SOC Hepatobiliary disorders ([2]; human, 2 year): (0.5) % | AE leading to discontinuation, SOC Investigations ([2]; human, 2 year): (2.1) % | AE leading to discontinuation, SOC Musculoskeletal and connective tissue disorders ([2]; human, 2 year): (0.2) % | AE leading to discontinuation, SOC Neoplasms benign, malignant and unspecified (incl cysts and polyps) ([2]; human, 2 year): (0.2) % | AE leading to discontinuation, SOC Nervous system disorders ([2]; human, 2 year): (0.4) % | AE leading to discontinuation, SOC Pregnancy, puerperium and perinatal conditions ([2]; human, 2 year): (0.5) % | AE leading to discontinuation, SOC Psychiatric disorders ([2]; human, 2 year): (0.2) % | AE leading to discontinuation, SOC Respiratory, thoracic and mediastinal disorders ([2]; human, 2 year): (1.2) % | AE leading to discontinuation, SOC Skin and subcutaneous tissue disorders ([2]; human, 2 year): (0.2) % | AE leading to discontinuation, SOC Social circumstances ([2]; human, 2 year): (0.4) % | AE leading to discontinuation, SOC Vascular disorders ([2]; human, 2 year): (0.5) % | AESI Effect on heart rate and rhythm (including hypotension) ([2]; human, 2 year): (5.1) % | AESI Non-skin malignancy ([2]; human, 2 year): (0.2) % | AESI Skin malignancy ([2]; human, 2 year): (0.9) % | Discontinuation reason: Physician decision, Adverse event ([2]; human, 2 year): (5.1) % | Discontinuation reason: Pre-specified study treatment discontinuation criteria ([2]; human, 2 year): (2.1) % | Discontinuation reason: Subject decision, Tolerability related ([2]; human, 2 year): (1.4) % | Incidence of basal cell carcinoma ([2]; human, 2 year): 0.4% | Overall rate of infections ([2]; human, 2 year): 54.2% | Subjects discontinued due to AEs or tolerability related reasons ([2]; human, 2 year): 6.5% | Subjects who prematurely discontinued study treatment ([2]; human, 2 year): (16.6) % | Subjects with at least one Drug-Related AE ([2]; human, 2 year): (49.2) % | Subjects with at least one Severe AE ([2]; human, 2 year): (6.9) % | TEAE ALT increased ([2]; human, 2 year): 19.5% | TEAE headache ([2]; human, 2 year): 11.5% | TEAE nasopharyngitis ([2]; human, 2 year): 19.3% | TEAE upper respiratory tract infection ([2]; human, 2 year): 10.6% | Adverse reaction: C-reactive protein increased ([2]; human, 2 years): 2% | Adverse reaction: Cough ([2]; human, 2 years): 4% | Adverse reaction: Dizziness ([2]; human, 2 years): 5% | Adverse reaction: Dyspnea ([2]; human, 2 years): 5% | Adverse reaction: Hepatic transaminase elevation ([2]; human, 2 years): 23% | Adverse reaction: Hypercholesterolemia ([2]; human, 2 years): 2% | Adverse reaction: Hypertension ([2]; human, 2 years): 10% | Adverse reaction: Pain in extremity ([2]; human, 2 years): 4% | Adverse reaction: Pyrexia ([2]; human, 2 years): 2% | Adverse reaction: Somnolence ([2]; human, 2 years): 3% | Adverse reaction: Urinary tract infection ([2]; human, 2 years): 6% | Adverse reaction: Vertigo ([2]; human, 2 years): 2% | Discontinuation reason: Lost to follow-up [2]: (0.4) % | Discontinuation reason: Physician decision [2]: (7.1) % | Discontinuation reason: Physician decision, Lack of efficacy/treatment failure [2]: (0.7) % | Discontinuation reason: Physician decision, Other [2]: (1.2) % | Discontinuation reason: Reason not provided [2]: (0.2) % | Discontinuation reason: Subject decision [2]: (6.9) % | Discontinuation reason: Subject decision, Efficacy related [2]: (1.2) % | Discontinuation reason: Subject decision, Not known [2]: (0.9) % | Discontinuation reason: Subject decision, Other [2]: (3.4) % | Patients who discontinued because of pulmonary adverse events [3]: 7 | Reduction from baseline in percent predicted FEV1 at 2 years [3]: 8.3% | Proportion of Patients with 3-month Confirmed Disability Progression ([4]; Kaplan-Meier estimates at Week 108): 10.8% | Hazard ratio, time to first 24-week CDA, ponesimod vs teriflunomide ([4]; exploratory): 0.84 | Reduction of risk of 12-week CDA compared to teriflunomide 14 mg ([4]; not statistically significant): 17% | Reduction of risk of 24-week CDA compared to teriflunomide 14 mg ([4]; not statistically significant): 16% | Hazard ratio, time to first 12-week CDA (3-month CDP), ponesimod vs teriflunomide [4]: 0.83 | Hazard ratio, time to first 12-week CDA (3-month CDP), ponesimod vs teriflunomide ([4]; listed as PONVORY): 0.83 (p = 0.29) | Hazard ratio, time to first 12-week CDA (3-month CDP), ponesimod vs teriflunomide ([4]; listed as ponesimod): 0.83 | Subjects with 12-week CDA ([4]; up to EOS): 10.1% | Subjects with 24-week CDA ([4]; up to EOS): 8.1%
